Measurements: article PMC9977887, “Crocodile defensin (CpoBD13) antifungal activity via pH-dependent phospholipid targeting and membrane disruption” (Nature Communications, 2023)
Where no end group is shown, it is not given here.

Assays:
[1] = tested on: U937 cells; assay: Propidium iodide uptake assay in serum-free medium; assay type: cell-based, human
Procedure: For propidium iodide uptake assays in serum-free medium, U937 cells (after centrifugation at 300 g, 5 min) were washed once in serum-free RPMI-1640, pelleted again (as previous centrifugation) and resuspended in serum-free media. […] PI (diluted in ice-cold PBS) was added to a final concentration of 1 µg/mL before analysis by flow cytometry using a BD FACSCanto II with FACSDiva 8.0.1 (BD Biosciences).

[2] = tested on: U937 cells; assay: MTT/MTS cell viability assay; assay type: cell-based, human; conditions: 48 h, at the assessed concentrations
Description: (§2) Human epithelial cervical cancer (HeLa, ATCC, CCL-2), prostate cancer (PC3, ATCC, CRL-1435) and histiocytic lymphoma (U937, ATCC, CRL-1593.2) cells were obtained from the American Type Culture Collection (Gaithersburg, Maryland) and cultured in RPMI-1640 medium (Thermo Fisher Scientific, Waltham, MA) supplemented with 5–10% (v/v) foetal bovine serum (FBS), 100 U/mL penicillin and 100 U/mL streptomycin (Invitrogen, Carlsbad, CA). Adult human dermal fibroblasts (AHDF, Lonza, CC-2511) cells were obtained from Lonza (Basel, Switzerland) and cultured in Dulbecco’s Modified Eagle Medium (DMEM) (Thermo Fisher Scientific) supplemented with 10% (v/v) FBS, 100 U/mL penicillin and 100 U/mL streptomycin. Human umbilical vein epithelial (HUVEC, Lonza, CC-2519) cells were obtained from Lonza and cultured in EBM-2 medium supplemented with EGM-2 SingleQuots (Lonza). All cell lines were maintained at 37 °C in a humidified incubator with 5% CO2.
(§3) Cell viability assays were performed using MTT/MTS as previously described[8].

[3] = tested on: C. albicans ATCC 10231; assay: Fungal growth inhibition assay, salt tolerance (NaCl); assay type: cell-based, Candida albicans; conditions: NaCl concentrations of 100 mM; 24 h
Procedure: (§1) For fungal growth assays, overnight cultures of C. albicans ATCC 10231 cells (yeast peptone dextrose broth, 30°C, shaking at 160 rpm) were pelleted (2000 g, 5 min), washed once in 0.5× potato dextrose broth (BD Biosciences, Franklin Lakes, NJ) and finally resuspended in the same media. Cells were seeded onto a 96-well plate (400 cells, 50 µL) and treated with an equal volume of varying concentrations of defensin in 0.5× potato dextrose broth. After incubating the samples (24 h, 30 °C), the plates were shaken to distribute the cells and growth was determined by performing a 9-well scan (600 nm) using a Spectramax M5e microplate reader (Molecular Devices, San Jose, CA). For assays testing defensin salt tolerance, C. albicans cells were instead resuspended in 1x potato dextrose broth and treated with an equal volume of CpoBD13 + NaCl solution at their intended concentrations. Propidium iodide (PI) uptake assays were performed by preparing the cells as per the standard growth inhibition assay however they were instead seeded onto a U-bottom 96-well plate (50,000 cells, 25 µL). […] For PI uptake experiments performed at a specific pH, the same method was followed with the exception that cells were resuspended in 1× potato dextrose broth while defensin titrations were diluted in 40 mM MES buffer at the intended pH. An example PI uptake gating strategy is presented in Supplementary Fig. 1d.

[4] = tested on: C. albicans ATCC 10231; assay: Propidium iodide uptake assay in pH-buffered conditions (MES buffer); assay type: cell-based, Candida albicans; conditions: 30 min
Procedure: as §1

[5] = tested on: HeLa cells; assay: MTT/MTS cell viability assay; assay type: cell-based, human; conditions: 48 h, at the assessed concentrations
Description: as §2, §3

[6] = Liposome pulldown; assay type: binding; conditions: for Fraction of total protein (%), bound fraction: pH 5.5 (20 mM MES); for Fraction of total protein (%), bound fraction / Fraction of total protein (%), Bound: 1 µg defensin
Procedure: Liposomes were prepared using natural chicken egg L-α-phophatidylcholine and L-α-phosphatidic acid dissolved in chloroform (Avanti Polar Lipids), and liposome pulldowns (at pH 7.4) and calcein-encapsulated liposome lysis assays were performed as previously described. For liposome pulldowns performed at pH 5.5, the same protocol was used with minor variations. The desiccated lipid films were resuspended in 20 mM MES pH 7.4 and were washed in the same buffer during the centrifugation process. After the final wash step, the liposome pellets were resuspended in 20 mM MES pH 5.5 and incubated with CpoBD13 or mutants thereof (also prepared in the same acidic buffer).

[7] = tested on: AHDF cells
Description: as §2, §3

[8] = tested on: HUVEC cells
Description: as §2, §3

[9] = PC only liposomes, pH 7.4, replicate 1
[10] = PC only liposomes, pH 7.4, replicate 2
[11] = PC only liposomes, pH 7.4, replicate 3
[12] = PC:PA 95:5 liposomes, pH 7.4, replicate 1
[13] = PC:PA 95:5 liposomes, pH 7.4, replicate 2
[14] = PC:PA 95:5 liposomes, pH 7.4, replicate 3

## CpoBD13: saltwater crocodile β-defensin 13, histidine-rich, three disulphide bonds, recombinantly expressed in Pichia pastoris (NGSYYSTLQCRNNHGHCRRLCFHGEQWIGNCNGRHQHCCK; disulfide (positions not given here); also: three disulphide bonds, pairings not given here)
[1]; 1.5625 μM CpoBD13, replicate 1
  PI positivity (%): 3.27%
[1]; 1.5625 μM CpoBD13, replicate 2
  PI positivity (%): 9.7%
[1]; 1.5625 μM CpoBD13, replicate 3
  PI positivity (%): 3.5%
[1]; 3.125 μM CpoBD13, replicate 1
  PI positivity (%): 2.47%
[1]; 3.125 μM CpoBD13, replicate 2
  PI positivity (%): 6.8%
[1]; 3.125 μM CpoBD13, replicate 3
  PI positivity (%): 4.1%
[1]; 6.25 μM CpoBD13, replicate 1
  PI positivity (%): 1.67%
[1]; 6.25 μM CpoBD13, replicate 2
  PI positivity (%): 10.8%
[1]; 6.25 μM CpoBD13, replicate 3
  PI positivity (%): 1%
[1]; 12.5 μM CpoBD13, replicate 1
  PI positivity (%): 3.27%
[1]; 12.5 μM CpoBD13, replicate 2
  PI positivity (%): 9.1%
[1]; 12.5 μM CpoBD13, replicate 3
  PI positivity (%): 14.3%
[1]; 25 μM CpoBD13, replicate 1
  PI positivity (%): 2.27%
[1]; 25 μM CpoBD13, replicate 2
  PI positivity (%): 13.1%
[1]; 25 μM CpoBD13, replicate 3
  PI positivity (%): 14.3%
[1]; 50 μM CpoBD13, replicate 1
  PI positivity (%): 2.77%
[1]; 50 μM CpoBD13, replicate 2
  PI positivity (%): 20.5%
[1]; 50 μM CpoBD13, replicate 3
  PI positivity (%): 18.6%
[1]; 100 μM CpoBD13, replicate 1
  PI positivity (%): 15.77%
[1]; 100 μM CpoBD13, replicate 2
  PI positivity (%): 6.8%
[1]; 100 μM CpoBD13, replicate 3
  PI positivity (%): 23%
[1]; serum-free media, 30 min, 37°C
  membrane permeabilisation (PI uptake): unable to effectively permeabilise
[2]
  effect on cell viability: did not affect the viability
[3]
  antifungal activity in NaCl: retained antifungal activity
[4]; pH 5.5
  membrane permeabilising activity: highly effective
[4]; pH 6.5
  membrane permeabilising activity: significantly reduced
[4]; pH 7.5
  membrane permeabilising activity: most dramatic loss of activity
[5]
  effect on cell viability: did not affect the viability
[6]; PC only liposomes, replicate 1
  Fraction of total protein (%), bound fraction: 18.4161%
[6]; PC only liposomes, replicate 2
  Fraction of total protein (%), bound fraction: 18.4773%
[6]; PC only liposomes, replicate 3
  Fraction of total protein (%), bound fraction: 29.8053%
[6]; [9]
  Fraction of total protein (%), Bound: 12.3509%
  Fraction of total protein (%), Unbound: 82.3399%
[6]; [10]
  Fraction of total protein (%), Bound: 1.776%
  Fraction of total protein (%), Unbound: 73.2719%
[6]; [11]
  Fraction of total protein (%), Bound: 33.499%
  Fraction of total protein (%), Unbound: 23.4493%
[6]; PC:PA 95:5, pH 7.4
  binding to PA-enriched liposomes: preferentially bound
[6]; PC:PA 95:5 liposomes, replicate 1
  Fraction of total protein (%), bound fraction: 88.2406%
[6]; PC:PA 95:5 liposomes, replicate 2
  Fraction of total protein (%), bound fraction: 92.9019%
[6]; PC:PA 95:5 liposomes, replicate 3
  Fraction of total protein (%), bound fraction: 89.3441%
[6]; [12]
  Fraction of total protein (%), Bound: 40.526%
  Fraction of total protein (%), Unbound: 36.1151%
[6]; [13]
  Fraction of total protein (%), Bound: 42.0716%
  Fraction of total protein (%), Unbound: 13.782%
[6]; [14]
  Fraction of total protein (%), Bound: 52.0773%
  Fraction of total protein (%), Unbound: 17.5375%
[6]; pH 7.4
  binding to PC only liposomes: negligible binding
[7]
  effect on cell viability: did not affect the viability
[8]
  effect on cell viability: did not affect the viability
